Legend:
Assay type in all cases: biochemical
Lck = target: T1, Lck (Homo sapiens, UniProt P06239); assay: Kinase inhibition assay (33P transfer), Lck; details: Table 3; read-out: Lck-1
T1 construct: Kinases are expressed as either kinase domains or full length constructs; made in house
In short: (§1)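 Recombinant kinase-domain or full-length fusion proteins (GST or His tag) served as enzyme. Substrate poly(Glu,Tyr) 4:1 or poly(Arg,Ser) 3:1 was bound to the plate; transferred 33P was read by liquid scintillation following acid washing.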

Lyn = target: T2, Lyn (Homo sapiens, UniProt P07948); assay: Kinase inhibition assay (33P transfer), Lyn; details: Table 6, Lyn-1 kinase inhibition class
T2 construct: Kinases are expressed as either kinase domains or full length constructs; made in house
Source text: (§2) The inhibitor compounds described herein are screened in the following manner. Kinases suitable for use in the following protocol to determine kinase activity of the compounds described herein include, -but are not limited to: Lck, Lyn, Src, Fyn, Syk, Zap-70, Itk, Tec, Btk, EGFR, ErbB2, Kdr, Flt-1, Flt-3, Tek, c-Met, InsR, and AKT.
(§3) Kinases are expressed as either kinase domains or full length constructs fused to glutathione S-transferase (GST) or polyHistidine tagged fusion proteins in either E. colior Baculovirus-High Five expression systems. They are purified to near homogeneity by affinity chromatography essentially as previously described (Lehr et al., 1996; Gish et al., 1995). In some instances, kinases are co-expressed or mixed with purified or partially purified regulatory polypeptides prior to measurement of activity.
(§4) Kinase activity and inhibition are measured essentially by established protocols (Braunwalder et al., 1996). Briefly, The transfer of ^33PO4 from ATP to the synthetic substrates poly(Glu, Tyr) 4:1 or poly(Arg, Ser) 3:1 attached to the bioactive surface of microtiter plates serves as the basis to evaluate enzyme activity. After an incubation period, the amount of phosphate transferred is measured by first washing the plate with 0.5% phosphoric acid, adding liquid scintillant, and then counting in a liquid scintillation detector. The IC50 is determined by the concentration of compound that causes a 50% reduction in the amount of […] incorporated onto the substrate bound to the plate.

Src = target: T3, Src (Homo sapiens, UniProt P12931); assay: Kinase inhibition assay (33P transfer), Src; details: Table 6, Src-1 kinase inhibition class
T3 construct: Kinases are expressed as either kinase domains or full length constructs; made in house
T3 sequence (P12931 whole entry, species assumed, the tested form may be a part): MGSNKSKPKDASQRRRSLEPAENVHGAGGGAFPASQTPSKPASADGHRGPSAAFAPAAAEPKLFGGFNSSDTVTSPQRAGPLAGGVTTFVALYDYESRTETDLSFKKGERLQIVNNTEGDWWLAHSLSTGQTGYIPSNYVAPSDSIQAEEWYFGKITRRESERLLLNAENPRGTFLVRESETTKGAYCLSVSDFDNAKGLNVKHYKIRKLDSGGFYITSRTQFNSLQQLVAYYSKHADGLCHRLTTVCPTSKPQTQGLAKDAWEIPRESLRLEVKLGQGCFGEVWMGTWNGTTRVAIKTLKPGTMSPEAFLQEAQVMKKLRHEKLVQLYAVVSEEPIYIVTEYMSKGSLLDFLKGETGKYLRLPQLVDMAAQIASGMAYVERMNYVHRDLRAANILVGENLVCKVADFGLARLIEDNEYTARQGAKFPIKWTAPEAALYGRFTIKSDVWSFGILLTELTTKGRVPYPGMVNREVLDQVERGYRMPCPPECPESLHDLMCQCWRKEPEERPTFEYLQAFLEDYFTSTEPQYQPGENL
Source text: as §2, §3, §4

Fyn = target: T4, Fyn (Homo sapiens, UniProt P06241); assay: Kinase inhibition assay (33P transfer), Fyn; details: read-out: Fyn-1
T4 construct: Kinases are expressed as either kinase domains or full length constructs; made in house
Source text: as §2, §3, §4

Zap-70 = target: T5, Zap-70 (Homo sapiens, UniProt P43403); assay: Kinase inhibition assay (33P transfer), Zap-70; details: Table 3; read-out: Zap-1
T5 construct: Kinases are expressed as either kinase domains or full length constructs; made in house
T5 sequence (P43403 1-619): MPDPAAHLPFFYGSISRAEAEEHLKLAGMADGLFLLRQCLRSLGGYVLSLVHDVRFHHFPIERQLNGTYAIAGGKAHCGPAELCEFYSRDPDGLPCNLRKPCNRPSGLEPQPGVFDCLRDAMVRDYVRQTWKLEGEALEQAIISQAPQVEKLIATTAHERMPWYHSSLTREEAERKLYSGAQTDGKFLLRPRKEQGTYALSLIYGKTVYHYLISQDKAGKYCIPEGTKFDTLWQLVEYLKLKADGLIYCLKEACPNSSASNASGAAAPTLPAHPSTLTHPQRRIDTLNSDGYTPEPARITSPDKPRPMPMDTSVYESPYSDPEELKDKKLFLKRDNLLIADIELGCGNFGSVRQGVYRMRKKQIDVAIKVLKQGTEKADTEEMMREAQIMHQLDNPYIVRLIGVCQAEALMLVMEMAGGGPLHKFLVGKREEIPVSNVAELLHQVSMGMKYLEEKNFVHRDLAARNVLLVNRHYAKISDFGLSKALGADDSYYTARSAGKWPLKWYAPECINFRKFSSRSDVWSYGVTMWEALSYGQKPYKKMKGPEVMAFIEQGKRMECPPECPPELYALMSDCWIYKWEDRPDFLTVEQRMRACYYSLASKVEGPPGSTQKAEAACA
In short: as §1

Itk = target: T6, Itk (Homo sapiens, UniProt Q08881); assay: Kinase inhibition assay (33P transfer), Itk; details: Table 3; read-out: Itk-1
T6 construct: Kinases are expressed as either kinase domains or full length constructs; made in house
T6 sequence (Q08881 1-620): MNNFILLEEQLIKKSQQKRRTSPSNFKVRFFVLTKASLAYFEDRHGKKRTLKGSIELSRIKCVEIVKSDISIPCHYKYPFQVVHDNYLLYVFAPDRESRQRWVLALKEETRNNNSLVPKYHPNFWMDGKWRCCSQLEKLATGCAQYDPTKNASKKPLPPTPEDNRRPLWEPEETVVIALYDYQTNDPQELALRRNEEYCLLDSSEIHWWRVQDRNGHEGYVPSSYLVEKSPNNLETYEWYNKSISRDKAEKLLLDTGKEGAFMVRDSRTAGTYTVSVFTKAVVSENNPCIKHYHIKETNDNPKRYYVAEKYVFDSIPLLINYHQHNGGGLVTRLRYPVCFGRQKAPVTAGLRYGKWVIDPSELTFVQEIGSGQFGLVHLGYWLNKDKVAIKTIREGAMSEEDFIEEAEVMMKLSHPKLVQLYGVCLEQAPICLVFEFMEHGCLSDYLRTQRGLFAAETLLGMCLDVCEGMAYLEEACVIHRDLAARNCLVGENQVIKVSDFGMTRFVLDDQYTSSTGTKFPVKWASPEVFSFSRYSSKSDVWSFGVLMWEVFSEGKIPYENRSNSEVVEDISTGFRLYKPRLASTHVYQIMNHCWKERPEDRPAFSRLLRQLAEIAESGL
In short: (§5)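 Radiometric format: recombinant tagged kinase (catalytic domain or whole protein, sometimes combined with regulatory polypeptides) phosphorylates immobilised poly(Glu,Tyr) 4:1 or poly(Arg,Ser) 3:1 using [33P]ATP. Wells are washed in 0.5% phosphoric acid, then counted. IC50 is taken where substrate labelling falls by half.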

EGFR = target: T7, EGFR (Homo sapiens, UniProt P00533); assay: Kinase inhibition assay (33P transfer), EGFR; details: Table 2, kinase inhibition class; read-out: EGFR-1
T7 construct: Kinases are expressed as either kinase domains or full length constructs; made in house
In short: as §5

Kdr = target: T8, Kdr (Homo sapiens, UniProt P35968); assay: Kinase inhibition assay (33P transfer), Kdr; details: Table 3; read-out: KDR-1
T8 construct: Kinases are expressed as either kinase domains or full length constructs; made in house
T8 sequence (P35968 20-1356, species assumed): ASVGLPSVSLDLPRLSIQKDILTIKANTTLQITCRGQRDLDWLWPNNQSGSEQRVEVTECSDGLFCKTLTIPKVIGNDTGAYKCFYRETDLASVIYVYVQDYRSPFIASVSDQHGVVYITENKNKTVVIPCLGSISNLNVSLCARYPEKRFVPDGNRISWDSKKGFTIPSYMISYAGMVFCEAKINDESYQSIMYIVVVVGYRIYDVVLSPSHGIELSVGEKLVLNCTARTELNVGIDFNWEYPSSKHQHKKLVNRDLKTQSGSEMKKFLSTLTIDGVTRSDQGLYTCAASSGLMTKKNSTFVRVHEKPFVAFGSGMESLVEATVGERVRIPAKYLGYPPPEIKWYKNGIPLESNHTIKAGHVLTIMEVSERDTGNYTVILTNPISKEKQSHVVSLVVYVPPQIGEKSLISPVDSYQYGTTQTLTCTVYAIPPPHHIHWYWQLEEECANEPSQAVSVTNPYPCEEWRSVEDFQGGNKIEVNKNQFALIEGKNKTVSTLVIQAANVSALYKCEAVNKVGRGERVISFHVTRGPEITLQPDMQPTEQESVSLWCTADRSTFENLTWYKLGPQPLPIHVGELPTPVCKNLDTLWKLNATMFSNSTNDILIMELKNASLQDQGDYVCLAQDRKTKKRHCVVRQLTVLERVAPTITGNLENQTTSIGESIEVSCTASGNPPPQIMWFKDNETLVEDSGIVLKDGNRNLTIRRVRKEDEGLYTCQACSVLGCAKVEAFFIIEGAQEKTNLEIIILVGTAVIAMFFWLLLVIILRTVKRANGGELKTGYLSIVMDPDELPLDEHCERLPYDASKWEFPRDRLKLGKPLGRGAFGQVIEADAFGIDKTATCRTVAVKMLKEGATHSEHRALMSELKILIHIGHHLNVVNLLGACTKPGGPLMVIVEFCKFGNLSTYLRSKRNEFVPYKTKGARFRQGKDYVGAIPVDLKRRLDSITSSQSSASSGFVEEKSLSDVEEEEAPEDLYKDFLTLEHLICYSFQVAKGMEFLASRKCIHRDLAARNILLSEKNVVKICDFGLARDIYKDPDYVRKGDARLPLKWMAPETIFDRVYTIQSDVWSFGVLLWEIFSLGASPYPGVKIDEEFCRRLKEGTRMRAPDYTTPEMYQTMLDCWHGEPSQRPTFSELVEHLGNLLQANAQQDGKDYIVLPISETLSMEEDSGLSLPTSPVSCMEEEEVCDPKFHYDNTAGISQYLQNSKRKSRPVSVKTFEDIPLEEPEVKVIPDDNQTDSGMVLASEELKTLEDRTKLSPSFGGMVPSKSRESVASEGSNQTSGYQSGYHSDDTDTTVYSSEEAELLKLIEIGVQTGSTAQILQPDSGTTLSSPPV
In short: as §1

Flt-1 = target: T9, Flt-1 (Homo sapiens, UniProt P17948); assay: Kinase inhibition assay (33P transfer), Flt-1
T9 construct: Kinases are expressed as either kinase domains or full length constructs; made in house
Source text: as §2, §3, §4

Tek = target: T10, Tek (Homo sapiens, UniProt Q02763); assay: Kinase inhibition assay (33P transfer), Tek; details: read-out: Tek-1
T10 construct: Kinases are expressed as either kinase domains or full length constructs; made in house
In short: as §5

c-Met = target: T11, c-Met (Homo sapiens, UniProt P08581); assay: Kinase inhibition assay (33P transfer), c-Met; details: Table 2, kinase inhibition class; read-out: Met-1
T11 construct: Kinases are expressed as either kinase domains or full length constructs; made in house
T11 sequence (P08581 25-1390): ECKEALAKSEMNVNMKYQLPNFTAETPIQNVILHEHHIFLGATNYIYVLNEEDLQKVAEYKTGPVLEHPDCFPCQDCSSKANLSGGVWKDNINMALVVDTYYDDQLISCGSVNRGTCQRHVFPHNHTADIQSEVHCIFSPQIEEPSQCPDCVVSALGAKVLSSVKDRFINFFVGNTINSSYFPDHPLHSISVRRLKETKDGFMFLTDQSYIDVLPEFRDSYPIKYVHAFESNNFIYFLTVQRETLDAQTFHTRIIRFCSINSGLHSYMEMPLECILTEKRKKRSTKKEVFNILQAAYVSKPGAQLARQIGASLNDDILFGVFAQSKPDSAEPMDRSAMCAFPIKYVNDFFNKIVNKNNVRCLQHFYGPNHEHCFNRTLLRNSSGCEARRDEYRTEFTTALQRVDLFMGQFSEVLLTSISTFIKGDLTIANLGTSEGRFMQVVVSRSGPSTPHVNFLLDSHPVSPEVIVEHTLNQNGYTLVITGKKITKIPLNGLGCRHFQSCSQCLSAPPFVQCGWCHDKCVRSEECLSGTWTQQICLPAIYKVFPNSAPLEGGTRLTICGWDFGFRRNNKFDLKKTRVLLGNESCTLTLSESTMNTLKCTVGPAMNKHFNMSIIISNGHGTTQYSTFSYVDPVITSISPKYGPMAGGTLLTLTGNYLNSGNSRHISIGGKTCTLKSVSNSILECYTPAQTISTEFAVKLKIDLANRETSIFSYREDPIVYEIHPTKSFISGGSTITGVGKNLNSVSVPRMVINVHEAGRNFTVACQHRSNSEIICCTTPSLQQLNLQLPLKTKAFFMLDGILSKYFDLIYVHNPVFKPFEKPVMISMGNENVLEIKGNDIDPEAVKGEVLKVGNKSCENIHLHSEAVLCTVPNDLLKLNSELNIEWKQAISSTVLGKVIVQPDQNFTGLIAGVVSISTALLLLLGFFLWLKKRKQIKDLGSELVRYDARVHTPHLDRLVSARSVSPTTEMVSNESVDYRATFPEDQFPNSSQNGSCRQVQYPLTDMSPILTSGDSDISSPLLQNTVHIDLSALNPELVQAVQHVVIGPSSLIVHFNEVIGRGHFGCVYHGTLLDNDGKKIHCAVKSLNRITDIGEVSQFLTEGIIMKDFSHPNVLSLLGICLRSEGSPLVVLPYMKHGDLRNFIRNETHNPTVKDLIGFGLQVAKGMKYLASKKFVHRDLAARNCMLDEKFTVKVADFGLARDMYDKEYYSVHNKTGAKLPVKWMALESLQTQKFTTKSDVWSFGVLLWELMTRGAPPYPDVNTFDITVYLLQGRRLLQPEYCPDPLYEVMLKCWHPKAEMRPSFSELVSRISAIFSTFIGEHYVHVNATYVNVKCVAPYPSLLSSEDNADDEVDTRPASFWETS
In short: as §5

AKT = target: T12, AKT (Homo sapiens, UniProt Q9Y243); assay: Kinase inhibition assay (33P transfer), AKT; details: Table 2, kinase inhibition class; read-out: AKT3-1
T12 construct: Kinases are expressed as either kinase domains or full length constructs; made in house
T12 sequence (Q9Y243 whole entry, the tested form may be a part): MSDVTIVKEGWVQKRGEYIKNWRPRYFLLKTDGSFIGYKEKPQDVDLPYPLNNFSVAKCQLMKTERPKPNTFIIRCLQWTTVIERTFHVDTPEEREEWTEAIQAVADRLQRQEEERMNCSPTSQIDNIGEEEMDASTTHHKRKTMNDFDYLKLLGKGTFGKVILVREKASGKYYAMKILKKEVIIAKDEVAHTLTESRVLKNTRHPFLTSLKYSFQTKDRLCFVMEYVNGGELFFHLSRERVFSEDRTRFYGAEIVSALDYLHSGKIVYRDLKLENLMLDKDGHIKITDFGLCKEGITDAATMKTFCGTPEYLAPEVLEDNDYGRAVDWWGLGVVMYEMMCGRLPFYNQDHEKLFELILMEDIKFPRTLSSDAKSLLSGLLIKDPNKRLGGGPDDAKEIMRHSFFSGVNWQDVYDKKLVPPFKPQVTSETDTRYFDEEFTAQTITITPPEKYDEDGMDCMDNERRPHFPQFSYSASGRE
In short: as §1

PDGFRB = target: T13, PDGFRB (Homo sapiens, UniProt P09619); assay: Kinase inhibition assay (33P transfer), PDGFRB; details: read-out: PDGFRB-1
T13 construct: Kinases are expressed as either kinase domains or full length constructs; made in house

Hck-1 = target: T14, Hck-1 (Homo sapiens, UniProt P08631); assay: Kinase inhibition assay (33P transfer), Hck; details: Table 6, Hck-1 kinase inhibition class
T14 construct: Kinases are expressed as either kinase domains or full length constructs; made in house
T14 sequence (P08631 whole entry, the tested form may be a part): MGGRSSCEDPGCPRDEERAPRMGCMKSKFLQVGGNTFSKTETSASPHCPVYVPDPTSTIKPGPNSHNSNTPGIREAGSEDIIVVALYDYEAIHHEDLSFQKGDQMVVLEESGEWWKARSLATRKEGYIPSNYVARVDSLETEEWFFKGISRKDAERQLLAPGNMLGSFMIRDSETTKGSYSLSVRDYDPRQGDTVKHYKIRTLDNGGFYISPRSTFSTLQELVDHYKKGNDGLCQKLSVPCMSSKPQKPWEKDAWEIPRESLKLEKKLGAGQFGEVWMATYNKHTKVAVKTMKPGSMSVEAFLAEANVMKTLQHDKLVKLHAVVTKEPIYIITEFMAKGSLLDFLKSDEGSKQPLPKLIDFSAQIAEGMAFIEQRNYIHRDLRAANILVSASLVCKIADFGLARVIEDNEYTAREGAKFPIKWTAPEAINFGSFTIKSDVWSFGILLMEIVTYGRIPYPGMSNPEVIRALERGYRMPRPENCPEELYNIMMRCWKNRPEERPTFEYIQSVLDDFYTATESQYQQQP

ErbB4 = target: T15, ErbB4 (Homo sapiens, UniProt Q15303); assay: Kinase inhibition assay (33P transfer), ErbB4; details: read-out: ErbB4-1
T15 construct: Kinases are expressed as either kinase domains or full length constructs; made in house

FGFR1 = target: T16, FGFR1 (Homo sapiens, UniProt P11362); assay: Kinase inhibition assay (33P transfer), FGFR1; details: read-out: FGFR1-1
T16 construct: Kinases are expressed as either kinase domains or full length constructs; made in house

IGFR-1 = target: T17, IGFR-1 (Homo sapiens, UniProt P08069); assay: Kinase inhibition assay (33P transfer), IGFR-1; details: Table 2, kinase inhibition class
T17 construct: Kinases are expressed as either kinase domains or full length constructs; made in house

T1 sequence (P06239 whole entry, species assumed, the tested form may be a part): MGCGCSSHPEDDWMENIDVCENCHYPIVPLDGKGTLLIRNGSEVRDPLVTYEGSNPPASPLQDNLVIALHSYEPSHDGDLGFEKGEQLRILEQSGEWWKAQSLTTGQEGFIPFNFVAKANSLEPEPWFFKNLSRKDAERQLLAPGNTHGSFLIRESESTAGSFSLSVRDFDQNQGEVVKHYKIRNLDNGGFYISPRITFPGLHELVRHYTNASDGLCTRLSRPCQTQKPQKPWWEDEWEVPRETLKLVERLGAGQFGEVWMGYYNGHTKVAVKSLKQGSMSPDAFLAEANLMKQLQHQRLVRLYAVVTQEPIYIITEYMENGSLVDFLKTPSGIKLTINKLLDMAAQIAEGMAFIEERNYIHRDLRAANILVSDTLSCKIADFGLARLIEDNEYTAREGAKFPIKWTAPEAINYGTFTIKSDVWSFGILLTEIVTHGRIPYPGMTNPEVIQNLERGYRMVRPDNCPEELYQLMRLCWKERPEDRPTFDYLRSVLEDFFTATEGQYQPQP

| Structure (SMILES) | IC50 (Lck) | IC50 (Lyn) | IC50 (Src) | IC50 (Fyn) | IC50 (Zap-70) | IC50 (Itk) | IC50 (EGFR) | IC50 (Kdr) | IC50 (Flt-1) | IC50 (Tek) | IC50 (c-Met) | IC50 (AKT) | IC50 (PDGFRB) | IC50 (Hck-1) | IC50 (ErbB4) | IC50 (FGFR1) | IC50 (IGFR-1) |
| --- | --- | --- | --- | --- | --- | --- | --- | --- | --- | --- | --- | --- | --- | --- | --- | --- | --- |
| COc1cc(Nc2ncnc(-n3c(Nc4ccc5[nH]ncc5c4)nc4ccccc43)n2)cc(OC)c1OC [Compound 404] | 0.785 to 4.71 µM | 0.785 to 4.71 µM | 4.71 to 6.87 µM | 0.785 to 4.71 µM | > 8.83 µM | 0.785 to 4.71 µM | 6.87 to 8.83 µM | < 0.785 µM | < 0.785 µM | > 8.83 µM | > 8.83 µM | 6.87 to 8.83 µM | < 0.785 µM | 6.87 to 8.83 µM | > 8.83 µM | < 0.785 µM |  |
| COc1cc(Nc2ncnc(-n3c(NCC(C)C)nc4ccccc43)n2)cc(OC)c1OC [Compound 407] | < 0.89 µM | < 0.89 µM | < 0.89 µM | < 0.89 µM | > 10 µM | > 10 µM | > 10 µM | < 0.89 µM | < 0.89 µM | > 10 µM | > 10 µM | > 10 µM | < 0.89 µM | > 10 µM | > 10 µM | < 0.89 µM |  |

Further lines, results first:

| IC50 (Lck) | IC50 (Lyn) | IC50 (Src) | IC50 (Fyn) | IC50 (Zap-70) | IC50 (Itk) | IC50 (EGFR) | IC50 (Kdr) | IC50 (Flt-1) | IC50 (Tek) | IC50 (c-Met) | IC50 (AKT) | IC50 (PDGFRB) | IC50 (Hck-1) | IC50 (ErbB4) | IC50 (FGFR1) | IC50 (IGFR-1) | Structure (SMILES) |
| --- | --- | --- | --- | --- | --- | --- | --- | --- | --- | --- | --- | --- | --- | --- | --- | --- | --- |
| 6.07 to 8.85 µM | > 11.4 µM | > 11.4 µM | 1.01 to 6.07 µM | > 11.4 µM | > 11.4 µM | > 11.4 µM | < 1.01 µM | 1.01 to 6.07 µM | > 11.4 µM | > 11.4 µM | > 11.4 µM | < 1.01 µM | > 11.4 µM | > 11.4 µM | > 11.4 µM |  | COc1cc(Nc2ncnc(-n3ccc4cc(F)ccc43)n2)cc(OC)c1OC [Compound 441] |
| 4.8 to 7.01 µM | > 9.01 µM | > 9.01 µM | > 9.01 µM | > 9.01 µM | > 9.01 µM | > 9.01 µM | < 0.801 µM | 0.801 to 4.8 µM | > 9.01 µM | > 9.01 µM | > 9.01 µM | < 0.801 µM | > 9.01 µM | > 9.01 µM | < 0.801 µM |  | COc1cccc(Nc2nc3ccccc3n2-c2ncnc(Nc3cc(OC)c(OC)c(OC)c3)n2)c1 [Compound 415] |
| > 11.7 µM |  |  |  | > 11.7 µM | > 11.7 µM | > 11.7 µM | 1.04 to 6.26 µM |  | > 11.7 µM | > 11.7 µM | > 11.7 µM | 1.04 to 6.26 µM |  |  |  | > 11.7 µM | COc1ccc(Nc2ncnc(Nc3ccc(OC)c(OC)c3)n2)cc1OC [Compound 63] |
